Assay results from paper PMC9964023 (Marine Drugs, 2023).
Entries after “also recorded” stand apart in the source; their conditions may differ. Bridge positions count the residues as written; N and C are the ends. Peptide text beside a SMILES is read from it.

Key:
Test in all cases: biochemical
[1] = biological target: T1, norepinephrine transporter (NET) (Rattus norvegicus, UniProt Q63380); assay type: biochemical
T1 construct: brains were processed to yield synaptosomes as previously described; from tissue; host or cells: rat whole brain minus caudate and cerebellum, synaptosomes
T1 sequence (Q63380 1-617): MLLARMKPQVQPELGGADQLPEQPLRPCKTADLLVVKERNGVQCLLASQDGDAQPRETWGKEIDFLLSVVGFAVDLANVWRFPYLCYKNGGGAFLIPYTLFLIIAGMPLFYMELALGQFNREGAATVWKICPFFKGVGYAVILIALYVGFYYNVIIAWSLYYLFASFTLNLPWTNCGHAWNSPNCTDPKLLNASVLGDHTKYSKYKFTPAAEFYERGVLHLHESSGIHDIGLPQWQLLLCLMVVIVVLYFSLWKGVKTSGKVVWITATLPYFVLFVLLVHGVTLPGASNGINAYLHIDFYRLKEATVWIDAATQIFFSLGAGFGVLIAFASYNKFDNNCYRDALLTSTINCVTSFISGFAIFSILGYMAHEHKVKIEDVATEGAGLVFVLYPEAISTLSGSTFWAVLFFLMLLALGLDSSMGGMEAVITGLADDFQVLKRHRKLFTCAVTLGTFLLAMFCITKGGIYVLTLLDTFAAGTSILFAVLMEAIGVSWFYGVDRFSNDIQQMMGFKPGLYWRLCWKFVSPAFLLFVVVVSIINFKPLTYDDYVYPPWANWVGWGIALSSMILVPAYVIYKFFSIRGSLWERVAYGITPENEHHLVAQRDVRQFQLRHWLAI

[2] = biological target: T2, serotonin transporter (SERT) (Rattus norvegicus, UniProt P31652)
T2 construct: brains were processed to yield synaptosomes as previously described; from tissue; host or cells: rat whole brain minus caudate and cerebellum, synaptosomes
T2 sequence (P31652 whole entry): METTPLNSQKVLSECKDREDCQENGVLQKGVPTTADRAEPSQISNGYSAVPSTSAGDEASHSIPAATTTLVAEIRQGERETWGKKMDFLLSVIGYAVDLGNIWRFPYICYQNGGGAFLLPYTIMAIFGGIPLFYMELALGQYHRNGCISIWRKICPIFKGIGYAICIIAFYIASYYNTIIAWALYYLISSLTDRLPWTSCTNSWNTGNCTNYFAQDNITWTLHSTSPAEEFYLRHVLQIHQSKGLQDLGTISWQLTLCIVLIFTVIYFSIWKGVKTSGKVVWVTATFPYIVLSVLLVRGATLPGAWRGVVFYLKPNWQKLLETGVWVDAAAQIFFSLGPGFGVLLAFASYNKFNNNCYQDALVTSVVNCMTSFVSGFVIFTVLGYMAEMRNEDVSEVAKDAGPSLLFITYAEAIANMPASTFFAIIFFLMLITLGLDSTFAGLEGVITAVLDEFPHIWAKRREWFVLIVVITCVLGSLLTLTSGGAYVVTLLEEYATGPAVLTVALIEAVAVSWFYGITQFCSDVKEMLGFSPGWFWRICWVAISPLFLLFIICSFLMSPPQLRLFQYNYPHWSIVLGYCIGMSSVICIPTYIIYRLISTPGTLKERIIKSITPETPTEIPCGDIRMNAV

[3] = biological target: T3, dopamine transporter (DAT) (Rattus norvegicus, UniProt P23977)
T3 construct: brains were processed to yield synaptosomes as previously described; from tissue; host or cells: rat caudate synaptosomes
T3 sequence (P23977 whole entry): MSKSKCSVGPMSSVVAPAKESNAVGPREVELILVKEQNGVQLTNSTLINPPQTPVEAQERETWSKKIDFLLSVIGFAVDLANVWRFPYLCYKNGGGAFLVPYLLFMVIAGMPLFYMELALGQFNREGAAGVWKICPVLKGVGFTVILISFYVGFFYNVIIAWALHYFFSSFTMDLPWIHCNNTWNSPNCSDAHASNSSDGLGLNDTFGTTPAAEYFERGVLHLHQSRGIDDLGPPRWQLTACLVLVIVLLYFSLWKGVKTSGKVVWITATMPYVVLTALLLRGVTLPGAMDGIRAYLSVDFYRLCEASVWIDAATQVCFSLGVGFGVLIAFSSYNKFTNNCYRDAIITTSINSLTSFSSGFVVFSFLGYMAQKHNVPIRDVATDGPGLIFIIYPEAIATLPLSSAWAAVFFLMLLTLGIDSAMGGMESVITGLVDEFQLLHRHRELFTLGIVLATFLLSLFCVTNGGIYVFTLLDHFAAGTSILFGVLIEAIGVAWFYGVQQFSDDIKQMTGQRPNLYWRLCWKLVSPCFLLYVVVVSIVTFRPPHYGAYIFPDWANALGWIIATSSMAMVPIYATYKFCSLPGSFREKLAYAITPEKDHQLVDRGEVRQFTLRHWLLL

`CSCC[C@@H]1NC(=O)[C@H](CCCNC(=N)N)NC(=O)[C@H](Cc2ccc(O)cc2)NC(=O)CNC(=O)[C@@H]2CSSC[C@H](NC1=O)C(=O)N[C@@H](C(C)C)C(=O)N1CCC[C@H]1C(=O)N[C@H](C(N)=O)CSSC[C@H](NC(=O)[C@@H](NC(=O)[C@@H](N)CO)[C@@H](C)O)C(=O)N2` [PnID B] (H-STCCGYRMCVPC-NH2; disulfide 3-12, 4-9) showed an IC50 [1] of 10 µM.
In the case of `CSCC[C@@H]1NC(=O)[C@H](CCCNC(=N)N)NC(=O)[C@H](Cc2ccc(O)cc2)NC(=O)CNC(=O)[C@@H]2CSSC[C@@H](C(N)=O)NC(=O)[C@@H]3CCCN3C(=O)[C@H](C(C)C)NC(=O)[C@H](CSSC[C@H](NC(=O)[C@@H](NC(=O)[C@@H](N)CO)[C@@H](C)O)C(=O)N2)NC1=O` [PnID A] (H-STCCGYRMCVPC-NH2; disulfide 3-9, 4-12), the IC50 [1] is reported as > 100 µM, the “activity at NET relative to ribbon isomer (in words)” value [1] is reported as “more than ten times less activity; also recorded: much less active in inhibiting the rat NET” and the IC50 [2] is reported as > 100 µM. The IC50 [3] was > 100 µM.
